Experimental data from patent publication US12018021B2 (UCB Biopharma SRL, priority 2018, dated 2024).
pIC50: −log10 of the molar value.

Biological target: IgE-Tb / sFcεRIα-Y131A-AF488 (Homo sapiens, UniProt P01854, N146Q/N252Q)
Test: IgE-Tb / sFcεRIα-Y131A-AF488 FRET assay (protocol for examples 234 to 501)
Format: binding
Settings: examples 234 to 501: compound with IgE-Tb 30 minutes before sFcεRIα-Y131A-AF488, incubated 18 hours at room temperature; read-out: Y131A FRET IC50 range
How it was run: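 Read-out is the 520/490 nm emission ratio (337 nm excitation) after 18 h at room temperature, background subtracted, fitted four-parameter for IC50. Final reagents: 5 nM IgE-Tb, preincubated 30 min with compound (top typically 10 μM, 2% DMSO, 3-fold 10-point), plus 25 nM sFcεRIα-Y131A-AF488.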

IgE-Tb / sFcεRIα-Y131A-AF488, sequence (P01854 whole entry N146Q/N252Q): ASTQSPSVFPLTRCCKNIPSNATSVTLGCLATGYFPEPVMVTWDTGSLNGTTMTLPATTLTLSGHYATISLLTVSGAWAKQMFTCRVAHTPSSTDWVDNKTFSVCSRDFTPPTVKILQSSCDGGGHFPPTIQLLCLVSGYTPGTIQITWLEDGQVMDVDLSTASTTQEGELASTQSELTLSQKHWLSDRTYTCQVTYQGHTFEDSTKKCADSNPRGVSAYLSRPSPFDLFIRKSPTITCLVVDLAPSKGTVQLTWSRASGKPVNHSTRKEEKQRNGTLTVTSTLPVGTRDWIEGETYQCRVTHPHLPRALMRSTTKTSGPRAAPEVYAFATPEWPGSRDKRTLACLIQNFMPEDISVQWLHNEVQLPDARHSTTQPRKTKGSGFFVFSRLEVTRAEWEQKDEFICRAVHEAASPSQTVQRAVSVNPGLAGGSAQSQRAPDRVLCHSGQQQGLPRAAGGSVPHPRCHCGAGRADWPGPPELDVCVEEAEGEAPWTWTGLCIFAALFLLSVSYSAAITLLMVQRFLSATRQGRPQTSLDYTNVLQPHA

| Structure (SMILES) | pIC50 |
| --- | --- |
| Cn1nc(OC(F)F)cc1Nc1nncn1[C@H]1CCc2sc(NC(=O)C3CC3(F)F)c(C(=O)N[C@H]3C[C@H](F)C3)c2C1 (single isomer, unassigned) [Example 279, (5S)-2-[[(1R*)-2,2-difluorocyclopropanecarbonyl]amino]-5-[3-[[5-(difluoromethoxy)-2-methyl-pyrazol-3-yl]amino]-1,2,4-triazol-4-yl]-N-(trans-3-fluorocyclobutyl)-4,5,6,7-tetrahydrobenzothiophene-3-carboxamide] | > 6.00 |
| Cn1nc(C(F)F)cc1Nc1nncn1[C@H]1CCc2sc(NC(=O)C3CC3)c(C(=O)NC[C@@H]3CC3(C)C)c2C1 (relative stereo) [Example 372, (5S)-2-(cyclopropanecarbonylamino)-5-[3-[[5-(difluoromethyl)-2-methylpyrazol-3-yl]amino]-1,2,4-triazol-4-yl]-N-[[(1R*)-2,2-dimethylcyclopropyl]methyl]-4,5,6,7-tetrahydro-1-benzothiophene-3-carboxamide (* or S)] | > 6.00 |
| C[C@H]1c2c(sc(NC(=O)C3CC3)c2C(=O)NCC2CC2)CC[C@@H]1n1cnnc1Nc1cc(C(F)(F)F)nn1C (single isomer, unassigned) [Example 422, (4R*,5R*)-2-(cyclopropanecarbonylamino)-N-(cyclopropylmethyl)-4-methyl-5-[3-[[2-methyl-5-(trifluoromethyl)pyrazol-3-yl]amino]-1,2,4-triazol-4-yl]-4,5,6,7-tetrahydrobenzothiophene-3-carboxamide] | > 6.00 |
| Cn1nc(OC(F)(F)Cl)cc1Nc1nncn1[C@H]1CCc2sc(NC(=O)C3CC3)c(C(=O)NCC3CC3)c2C1 [Example 295, (5S)-5-[3-[[5-[chloro(difluoro)methoxy]-2-methyl-pyrazol-3-yl]amino]-1,2,4-triazol-4-yl]-2-(cyclopropanecarbonylamino)-N-(cyclopropylmethyl)-4,5,6,7-tetrahydrobenzothiophene-3-carboxamide] | > 6.00 |
| COc1cc(Nc2nncn2[C@H]2CCc3sc(NC(=O)[C@H]4C[C@@H]4C)c(C(=O)NC[C@@H]4CC4(F)F)c3C2)n(C)n1 (single isomer, unassigned) [Example 464] | > 6.00 |
| Cc1ccc(C2CC(Nc3nncn3[C@H]3CCc4sc(NC(=O)C5CC5)c(C(=O)NCC5CC5)c4C3)C2)cn1 (single isomer, unassigned) [Example 276] | > 6.00 |
| Cn1nc(OC(F)F)cc1Nc1nncn1[C@H]1CCc2sc(NC(=O)C3CC(F)(F)C3)c(C(=O)N[C@H]3C[C@H](F)C3)c2C1 [Example 492, (5S)-2-[(3,3-difluorocyclobutanecarbonyl)amino]-5-[3-[[5-(difluoromethoxy)-2-methylpyrazol-3-yl]amino]-1,2,4-triazol-4-yl]-N-(trans-3-fluorocyclobutyl)-4,5,6,7-tetrahydro-1-benzothiophene-3-carboxamide] | > 6.00 |
| Cc1c(Nc2nncn2[C@H]2CCc3sc(NC(=O)C4CC4)c(C(=O)NCC4CC4)c3C2)cccc1[S+](C)[O-] (stereo partly drawn) [Example 263, (5S)-2-(cyclopropanecarbonylamino)-N-(cyclopropylmethyl)-5-[3-(2-methyl-3-methylsulfinyl-anilino)-1,2,4-triazol-4-yl]-4,5,6,7-tetrahydrobenzothiophene-3-carboxamide] | > 6.00 |
| Cn1nc(OC(F)F)cc1Nc1nncn1[C@H]1CCc2sc(NC(=O)C3CC3)c(C(=O)N[C@H]3C[C@@H](F)C3)c2C1 [Example 447, (5S)-2-(cyclopropanecarbonylamino)-5-[3-[[5-(difluoromethoxy)-2-methylpyrazol-3-yl]amino]-1,2,4-triazol-4-yl]-N-(cis-3-fluorocyclobutyl)-4,5,6,7-tetrahydro-1-benzothiophene-3-carboxamide] | > 6.00 |
| Cc1nnccc1Nc1nncn1[C@H]1CCc2sc(NC(=O)C3CC3)c(C(=O)NCC3CC3)c2C1 [Example 304, (5S)-2-(cyclopropanecarbonylamino)-N-(cyclopropylmethyl)-5-[3-[(3-methylpyridazin-4-yl)amino]-1,2,4-triazol-4-yl]-4,5,6,7-tetrahydrobenzothiophene-3-carboxamide] | > 6.00 |
| Cn1nc(C(F)F)cc1Nc1nncn1[C@H]1CCc2sc(NC(=O)C3CC3)c(C(=O)N[C@@H]3CC34CC4)c2C1 [Example 496, (5S)-2-(cyclopropanecarbonylamino)-5-[3-[[5-(difluoromethyl)-2-methyl-pyrazol-3-yl]amino]-1,2,4-triazol-4-yl]-N-[(2R)-spiro[2.2]pentan-2-yl]-4,5,6,7-tetrahydrobenzothiophene-3-carboxamide] | > 6.00 |
| Cc1nc(F)ccc1Nc1nncn1[C@H]1CCc2sc(NC(=O)C3CC3)c(C(=O)NCC3CC3)c2C1 [Example 424, (5S)-2-(cyclopropanecarbonylamino)-N-(cyclopropylmethyl)-5-[3-[(6-fluoro-2-methyl-3-pyridyl)amino]-1,2,4-triazol-4-yl]-4,5,6,7-tetrahydrobenzothiophene-3-carboxamide] | > 6.00 |
| COc1cc(Nc2nncn2[C@H]2CCc3sc(NC(=O)[C@H]4C[C@@H]4C)c(C(=O)NCC4CC4)c3C2)n(C)n1 [Example 468, (5S)—N-(cyclopropylmethyl)-5-[3-[(5-methoxy-2-methylpyrazol-3-yl)amino]-1,2,4-triazol-4-yl]-2-[[(1S,2S)-2-methylcyclopropanecarbonyl]amino]-4,5,6,7-tetrahydro-1-benzothiophene-3-carboxamide] | > 6.00 |
| O=C(NCC1CC1)c1c(NC(=O)C2CC2)sc2c1C[C@@H](n1cnnc1N[C@H]1CN(C(=O)c3ccccc3)CC1(F)F)CC2 (relative stereo) [Example 285, (5S)-5-[3-[[(3S*)-1-benzoyl-4,4-difluoro-pyrrolidin-3-yl]amino]-1,2,4-triazol-4-yl]-2-(cyclopropanecarbonylamino)-N-(cyclopropylmethyl)-4,5,6,7-tetrahydrobenzothiophene-3-carboxamide [* or R]] | > 6.00 |
| COc1cc(Nc2nncn2[C@H]2CCc3sc(NC(=O)C4CC4)c(C(=O)NCC4CC4)c3C2)ccn1 [Example 429, (5S)-2-(cyclopropanecarbonylamino)-N-(cyclopropylmethyl)-5-[3-[(2-methoxy-4-pyridyl)amino]-1,2,4-triazol-4-yl]-4,5,6,7-tetrahydrobenzothiophene-3-carboxamide] | > 6.00 |
| O=C(NCC1CC1)c1c(NC(=O)C2CC2)sc2c1C[C@@H](n1cnnc1NC1CCC3(CCN(c4ncccn4)C3)C1)CC2 (single isomer, unassigned) [Example 289] | > 6.00 |
| Cn1nc(C(F)F)cc1Nc1nncn1[C@H]1CCc2sc(NC(=O)[C@H]3C[C@H](F)C3)c(C(=O)N[C@H]3C[C@H](F)C3)c2C1 (single isomer, unassigned) [Example 476] | > 6.00 |
| CCOc1cc(Nc2nncn2[C@H]2CCc3sc(NC(=O)[C@H]4C[C@@H]4F)c(C(=O)NCC4CC4)c3C2)n(C)n1 [Example 310, (5S)—N-(cyclopropylmethyl)-5-[3-[(5-ethoxy-2-methyl-pyrazol-3-yl)amino]-1,2,4-triazol-4-yl]-2-[[(1R,2S)-2-fluorocyclopropanecarbonyl]amino]-4,5,6,7-tetrahydrobenzothiophene-3-carboxamide] | > 6.00 |
| Cn1nc(OCC2CC2)cc1Nc1nncn1[C@H]1CCc2sc(NC(=O)[C@H]3C[C@@H]3F)c(C(=O)NCC3CC3)c2C1 [Example 309, (5S)-5-[3-[[5-(cyclopropylmethoxy)-2-methyl-pyrazol-3-yl]amino]-1,2,4-triazol-4-yl]-N-(cyclopropylmethyl)-2-[[(1R,2S)-2-fluorocyclopropanecarbonyl]amino]-4,5,6,7-tetrahydrobenzothiophene-3-carboxamide] | > 6.00 |
| C[C@H]1C[C@@H]1C(=O)Nc1sc2c(c1C(=O)NC[C@H]1C[C@H]1F)C[C@@H](n1cnnc1Nc1cc(C(F)F)nn1C)CC2 [Example 443, (5S)-5-[3-[[5-(difluoromethyl)-2-methylpyrazol-3-yl]amino]-1,2,4-triazol-4-yl]-N-[[(1R,2R)-2-fluorocyclopropyl]methyl]-2-[[(1S,2S)-2-methylcyclopropanecarbonyl]amino]-4,5,6,7-tetrahydro-1-benzothiophene-3-carboxamide] | > 6.00 |
| Cn1nc(C(F)F)cc1Nc1nncn1[C@H]1CCc2sc(NC(=O)[C@H]3CC34CC4)c(C(=O)NCC3CC3(F)F)c2C1 (mixture of isomers) [Example 408, (5S)—N-[(2,2-Difluorocyclopropyl)methyl]-5-[3-[[5-(difluoromethyl)-2-methylpyrazol-3-yl]amino]-1,2,4-triazol-4-yl]-2-[[(2S)-spiro [2.2]pentane-2-carbonyl]amino]-4,5,6,7-tetrahydro-1-benzothiophene-3-carboxamide] | > 6.00 |
| Cn1nc(OC(F)F)cc1Nc1nncn1[C@H]1CCc2sc(NC(=O)[C@H]3C[C@H]3F)c(C(=O)NCC3CC3)c2C1 (single isomer, unassigned) [Example 349] | > 6.00 |
| Cc1nc(Cl)ccc1Nc1nncn1[C@H]1CCc2sc(NC(=O)C3CC3)c(C(=O)NCC3CC3)c2C1 [Example 302, (5S)-5-[3-[(6-chloro-2-methyl-3-pyridyl)amino]-1,2,4-triazol-4-yl]-2-(cyclopropanecarbonylamino)-N-(cyclopropylmethyl)-4,5,6,7-tetrahydrobenzothiophene-3-carboxamide] | > 6.00 |
| Cn1nc(C(F)(F)F)cc1Nc1nncn1[C@H]1CCc2sc(NC(=O)[C@@H]3C[C@@H]3F)c(C(=O)NCC3CC3)c2C1 [Example 401] | > 6.00 |
| Cn1nc(C#N)cc1Nc1nncn1[C@H]1CCc2sc(NC(=O)C3CC3)c(C(=O)NCC3CC3)c2C1 [Example 418, (5S)-5-[3-[(5-Cyano-2-methyl-pyrazol-3-yl)amino]-1,2,4-triazol-4-yl]-2-(cyclopropanecarbonylamino)-N-(cyclopropylmethyl)-4,5,6,7-tetrahydrobenzothiophene-3-carboxamide] | > 6.00 |
